Results on three compounds are retold here after publication PMC10931833, “Simultaneous Purification of Human Interferon Alpha-2b and Serum Albumin Using Bioprivileged Fluorinated Ionic Liquid-Based Aqueous Biphasic Systems” (International Journal of Molecular Sciences, 2024).

The target of one data set is T1, BSA (Bos taurus, UniProt P02769).
T1 construct: purchased Millipore Sigma-Aldrich
The experiment in a line: CD thermal unfolding (Tm) of BSA. Format: physicochemical, bovine. Conditions: 1.0 mg/ml BSA, 200 mM component aqueous solution. An excerpt:
The thermal stability assessed by far-UV CD is solely determined through the thermal decay of the alpha-helical structure.

The target of a further data set is T2, FITC-BSA (Bos taurus, UniProt P02769).
T2 construct: purchased Millipore Sigma-Aldrich
Kind of data set: MST binding to FITC-BSA. More on the design: species or system bovine. The following applies: 0.41 μM BSA. How it is done: Herein, a commercial FITC labeling kit (Section 3) was used to fluorescently tag both IFN- α 2b and BSA. Typically, in the labeling process, one amine per protein is labeled, statistically distributing the position of the dye. […] The MST assay was performed as detailed in Section 3. The solutions were prepared with a concentration of IFN- α 2b and BSA fixed at 0.41 μ M in water. For IFN- α 2b a concentration of 2.7 μ M was also prepared to compare it with previous results on MST-binding between FILs and IFN- α 2b fluorescently labeled with a different tag. In each run of MST, a maximum concentration of a ligand is selected and consecutively diluted in sixteen capillaries. […] The experimental conditions of the MST assay only allow the study of the aggregation phenomenon individually for the first CAC.
(§1) Microscale thermophoresis (MST) measurements of the dye-labeled protein were used to conduct binding investigations. […] MST tests were conducted in a monolith NT.115 (blue/red) in accordance with the NanoTemper Technologies methodology. Medium MST power and 20% LED power (nano-blue) were set as the instrument’s default settings. For every MST measurement, a PBS buffer was used. The concentration of FITC-BSA was fixed at 0.4 μ M and FITC-IFN- α 2b was tested under two different concentrations (of 0.4 and 2.7 μ M). The ligand was used to create a set of 16 1:1 dilutions, with the starting ligand concentrations ranging from 10 to 400 mM. The typical parameters for MST traces were used for recording: […], 30 s MST power on, and 5 s MST power off. The data from three independently conducted pipetted experiments were examined using NanoTemper Technologies’ MO.Affinity Analysis software, version 2.3.

For data set [1], the target named is T3, IFN-α2b (Homo sapiens, UniProt P01563).
T3 construct: single non-glycosylated polypeptide chain with a molecular weight of 19 kDa, comprising 165 amino acids; purchased Millipore Sigma-Aldrich SRP4595-100UG; host or cells: E. coli
The experiment in a line: Far-UV CD secondary structure of IFN-α2b (CONTIN-LL deconvolution). The format is physicochemical. Conditions: 0.125 mg/mL IFN-α2b, 200 mM component, 25 °C. An excerpt:
Circular dichroism (CD) is widely used to study the secondary structures of proteins, peptides and nucleic acids, because it requires a low concentration sample, is a nondestructive method, allows studying a wide range of variables (temperature, pH, etc.), and provides information on the effect of added ligands on protein folding and interactions.
Circular dichroism (CD) spectra were collected in a 10 mm quartz cuvette and a Chirascan spectropolarimeter (Applied Photophysics, UK) at room temperature. All CD spectra were recorded in the far-UV range of 190 to 260 nm at scan rates of 50 nm/min, with 4 accumulations, and a response time of 3 s; CD spectra were collected. For each CD experiment, two distinct duplicates were acquired and combined. […] Spectral deconvolution was carried out with DichroWeb using the CONTIN-LL deconvolution algorithm with the SMP180 reference set.

The target in data set [2] is T3, IFN-α2b. Kind of data set: CD thermal unfolding (Tm) of IFN-α2b. Conditions: 0.125 mg/ml IFN-α2b, 200 mM component aqueous solution. Format: physicochemical. As for the experimental part: The same analyses attained for 208 nm and 192 nm are illustrated in Figures S5 and S6 in the Supplementary Materials. The corresponding T m values are estimated by fitting to a sigmoid with four parameters (one-way ANOVA, significance level of 0.05) and summarized in Table S2 in the Supplementary Materials. The CD T m of 0.125 mg/mL native IFN- α 2b is in good agreement with what was previously reported. […] The estimated T m values are summarized in Table S2 in the Supplementary Materials. The same analysis is attained for 208 nm and 192 nm, as depicted in Figures S5 and S6 in the Supplementary Materials. All the CD T m results are summarized in Table S2 in the Supplementary Materials. The thermal stability assessed by far-UV CD is solely determined through the thermal decay of the alpha-helical structure.
The same analysis was attained for 208 nm and 192 nm as illustrated in Figure S13 in the Supplementary Materials. The corresponding T m values are depicted in Table 5, and were estimated by fitting a sigmoid with four parameters (one-way ANOVA, with a significance level of 0.05).

On the set-up of data set [3]: method as in earlier work. Conditions: aqueous solution at 25 °C, ref 3 (supplement; main text ref 71), cited from earlier work; for 1st CAC / 2nd CAC / 3rd CAC: ITC ([C2C1Im][C4F9SO3]) or conductometry ([N1112(OH)][C4F9SO3]).
The target of a further data set is T4, FITC-IFN-α2b (Homo sapiens, UniProt P01563).
T4 construct: single non-glycosylated polypeptide chain with a molecular weight of 19 kDa, comprising 165 amino acids; purchased Millipore Sigma-Aldrich SRP4595-100UG; host or cells: E. coli
The experiment in a line: MST binding to FITC-IFN-α2b. As for the experimental part:
Typically, in the labeling process, one amine per protein is labeled, statistically distributing the position of the dye. Consequently, the risk of the label impairing the binding is minimal, given the typical number of lysine residues in proteins. […] The MST assay was performed as detailed in Section 3. […] For IFN- α 2b a concentration of 2.7 μ M was also prepared to compare it with previous results on MST-binding between FILs and IFN- α 2b fluorescently labeled with a different tag. In each run of MST, a maximum concentration of a ligand is selected and consecutively diluted in sixteen capillaries. […] The experimental conditions of the MST assay only allow the study of the aggregation phenomenon individually for the first CAC. For the MST runs with the concentration of the first capillary above the second CAC, the determined K d values for the runs that yield binding are influenced by several aggregates, making it impossible to attribute the K d value to a specific CAC. However, K d comprises the influence of the distinct aggregates of the FIL on binding affinity with both proteins, allowing a qualitative analysis of the impact of the different aggregates on binding affinity.
as §1

Where [4] appears, read: max. conc. first capillary below 1st CAC (monomer).

Like-named read-outs stand apart in the source and are kept apart here.

T3 sequence (P01563 24-188): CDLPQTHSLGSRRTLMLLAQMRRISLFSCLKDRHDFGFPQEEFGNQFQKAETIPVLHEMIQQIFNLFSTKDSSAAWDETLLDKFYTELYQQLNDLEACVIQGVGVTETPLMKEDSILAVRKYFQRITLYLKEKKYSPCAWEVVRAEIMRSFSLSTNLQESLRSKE
T4 sequence (P01563 24-188): as above
T1 sequence (P02769 25-607): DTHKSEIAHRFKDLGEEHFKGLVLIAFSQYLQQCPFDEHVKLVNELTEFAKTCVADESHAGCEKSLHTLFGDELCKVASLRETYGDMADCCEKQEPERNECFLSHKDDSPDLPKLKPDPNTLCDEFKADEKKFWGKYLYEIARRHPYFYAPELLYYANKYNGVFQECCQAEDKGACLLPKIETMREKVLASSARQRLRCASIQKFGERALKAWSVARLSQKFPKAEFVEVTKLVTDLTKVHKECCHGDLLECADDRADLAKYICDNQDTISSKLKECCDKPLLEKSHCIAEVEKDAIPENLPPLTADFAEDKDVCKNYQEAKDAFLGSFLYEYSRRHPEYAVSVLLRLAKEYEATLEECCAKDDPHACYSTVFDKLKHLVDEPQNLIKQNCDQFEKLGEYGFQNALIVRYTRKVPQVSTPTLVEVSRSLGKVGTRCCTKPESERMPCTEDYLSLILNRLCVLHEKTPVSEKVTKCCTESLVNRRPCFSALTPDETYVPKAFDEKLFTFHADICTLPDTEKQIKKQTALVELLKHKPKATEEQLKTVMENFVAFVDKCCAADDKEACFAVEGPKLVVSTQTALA
T2 sequence (P02769 25-607): as above

Regarding `CCCCn1cc[n+](C)c1.O=S(=O)([O-])C(F)(F)F` [[C4C1Im][CF3SO3], 1-butyl-3-methylimidazolium trifluoromethanesulfonate], on BSA, the “Tm, Ellipticity 192 nm” value worked out at 75.050 °C; the “Tm, Ellipticity 208 nm” value stood at 77.089 °C; the “Tm, Ellipticity 222 nm” value was 74.833 °C. At FITC-BSA (max. conc. first capillary 12.5 mM (monomer)), the Kd entry is recorded as “no binding detected”. Further, the Kd result on FITC-BSA (max. conc. first capillary 400 mM (monomer)) is given as “no binding detected”.

For `C[N+](C)(C)CCO.O=S(=O)([O-])C(F)(F)C(F)(F)C(F)(F)C(F)(F)F` [[N1112(OH)][C4F9SO3], (2-hydroxyethyl)trimethylammonium perfluorobutane sulfonate], at IFN-α2b [1], the “Distorted Alpha Helix” value is reported as 0.148, the “Distorted Beta Sheet” value is 0.064, the “Regular Alpha Helix” value was 0.303 and the “Regular Beta Sheet” value came to 0.071. In addition, at IFN-α2b [1], the Turns stood at 0.188 and the Unordered was 0.226. Besides, on IFN-α2b [2], the “Tm, Ellipticity 192 nm” value came out at 35.992 °C; the “Tm, Ellipticity 208 nm” value stood at 61.234 °C; the “Tm, Ellipticity 222 nm” value was 56.542 °C. At BSA, the “Tm, Ellipticity 208 nm” value is 92.409 °C. Also, the Kd entry on FITC-BSA (setting [4]) is listed as “no binding detected”. The Kd entry on FITC-BSA (max. conc. first capillary in 3rd CAC range) is “no binding detected”. Further, in data set [3], the “1st CAC” value was 16.02 mM, the “2nd CAC” value was 35.17 mM and the “3rd CAC” value is recorded as 185.65 mM.

Consider `CCn1cc[n+](C)c1.O=S(=O)([O-])C(F)(F)C(F)(F)C(F)(F)C(F)(F)F` [1-ethyl-3-methylimidazolium perfluorobutane sulfonate], for which, at IFN-α2b [1], the “Distorted Alpha Helix” value turned out to be 0.153. Also, the “Distorted Beta Sheet” value at IFN-α2b [1] is recorded as 0.069. Further, the “Regular Alpha Helix” value on IFN-α2b [1] was 0.292. The “Regular Beta Sheet” value on IFN-α2b [1] turned out to be 0.05. The Turns on IFN-α2b [1] is listed as 0.204. In addition, the Unordered at IFN-α2b [1] is listed as 0.232. Also, the “Tm, Ellipticity 192 nm” value on IFN-α2b [2] was found to be 53.633 °C. The Kd entry at FITC-IFN-α2b (0.41 μM IFN-α2b, max. conc. first capillary below 1st CAC (monomer)) is “no binding detected”; on FITC-IFN-α2b (0.41 μM IFN-α2b, max. conc. first capillary in 2nd CAC range, 25 °C, read-out: Kd), 710 ± 370 µM; at FITC-IFN-α2b (0.41 μM IFN-α2b, max. conc. first capillary in 4th CAC range, 25 °C, read-out: Kd) it was 6280 ± 1090 µM; on FITC-IFN-α2b (2.7 μM IFN-α2b, max. conc. first capillary in 1st CAC range, 25 °C, read-out: Kd) it was 9100 ± 6380 µM; at FITC-IFN-α2b (2.7 μM IFN-α2b, max. conc. first capillary in 3rd CAC range, 25 °C, read-out: Kd) it was 29900 ± 6270 µM; on FITC-BSA (setting [4]), “no binding detected”. Moreover, the Kd on FITC-BSA (max. conc. first capillary in 1st CAC range, read-out: Kd) was 1610 ± 390 µM; on FITC-BSA (max. conc. first capillary in 2nd CAC range, read-out: Kd), 1730 ± 420 µM; at FITC-BSA (max. conc. first capillary in 3rd CAC range, read-out: Kd), 2860 ± 1460 µM; at FITC-BSA (max. conc. first capillary in 4th CAC range) it was “no binding detected”. In addition, the “1st CAC” value in data set [3] was 14.40 mM. Also, the “2nd CAC” value in data set [3] is 34.48 mM. Besides, the “3rd CAC” value in data set [3] is 76.54 mM. For the same compound, the “4th CAC” value in data set [3] (ITC) is reported as 106.09 mM.

As a reminder, the Kd is the free concentration of one partner at which half of the binding sites on the other are occupied at equilibrium, for simple one-to-one binding.
